Laboratory results from US8008478B2, “Process for the preparation of cefixime” (Lupin Limited, priority 2004, dated 2011).

Assay: Solubility check of a 3.3% solution of cefixime (I) in methanol
Assay type: physicochemical
Conditions: for Solubility: 3.3% solution of cefixime (I) in methanol
Description: The most preferred embodiment of the present invention is the acidification of the filtrate obtained in step (ii) to pH 2.0 to 3.0, preferably to 2.2 to 2.4 with dilute […] filtration at 50-80°, preferably at 60-70° C., most preferably at 64-68° C.

Solubility (acidification and isolation of cefixime methyl ester (IV) at 25-30° C.): Hazy
Solubility (acidification and isolation of cefixime methyl ester (IV) at 45-47° C.): Hazy
Solubility (acidification and isolation of cefixime methyl ester (IV) at 65-67° C.): Clear
Solubility profile (in words) (acidification and isolation of cefixime ester (IV) at 50-80° C., then alkaline hydrolysis): better solubility profile
Solubility (in words) (acidification and isolation of cefixime ester (IV) at temperature below 50° C., then alkaline hydrolysis): poor solubility
SMILES: C=CC1=C(C(=O)O)N2C(=O)C(NC(=O)/C(=N\OCC(=O)O)c3csc(N)n3)C2SC1 (stereo not drawn) [cefixime (I), [6R-[6α,7β(Z)]]-7-[[(2-amino-4-thiazolyl)[(carboxymethoxy)imino]acetyl]amino]-3-vinyl-3-cephem-4-carboxylic acid]
